Measured values taken from US5837548A, “Treatment of inflammation by inhibition of lipid body formation” (Beth Israel Hospital, priority 1995, dated 1998).

How the values were obtained:
[1] = system: macrophages from cyclooxygenase-2 deficient mice; assay: lipid body formation in macrophages from cyclooxygenase-2 deficient mice; assay type: cell-based, mouse; details: AA 3.7-15 μM or OA 2.5-10 μM
Method: (§1) Cyclooxygenase-1 and cyclooxygenase-2 knockout mice were generated as recently described (Morham et al., Cell 83:473-482 (1995); Langenbach et al., Cell 83:483-492 (1995)). All experiments were carried out with male 8-12 week old mice. Macrophages from cyclooxygenase genetically deficient mice and wild-type litter mates were obtained by lavaging the peritoneal cavity with 5 mL of cold RPMI containing heparin (20 IU/mL).

[2] = system: peritoneal macrophages from COX 1 knockout mice; assay: lipid body formation in peritoneal macrophages from cyclooxygenase-1 knockout mice; assay type: cell-based, mouse; details: for induction of lipid body formation in macrophages: cyclooxygenase-1 deficient mice, AA 3.7-15 μM or OA 2.5-10 μM
Method: (§2) FIG. 4 is a graph illustrating the effects of arachidonic acid and oleic acid on lipid body formation in peritoneal macrophages from wild type (+/+) and cyclooxygenase-1 knockout (-/-) mice. The agonists AA and OA are represented by the square and circle symbols, respectively. The closed symbols represent the wild type mice; the open symbols represent the cyclooxygenase-1 knockout mice. Macrophages (10^6 /mL) were incubated with the agonists AA and OA at varying concentrations for an hour. Lipid bodies were enumerated using light microscopy following osmium staining. Each point represents the mean±SEM from fifty consecutively scanned macrophages.
as §1
(§3) ^1 Peritoneal macrophages from wild type and COX 1 knockout mice were
(§4) pretreated with the NSAID or vehicle for 1h and then stimulated with
(§5) arachidonic acid (AA, 15 μM) or vehicle for 1h. Results are mean ±
(§6) SEM from fifty consecutively counted macrophages. The statistically

human neutrophils = assay: cis-unsaturated fatty acid-induced lipid body formation in human neutrophils (osmium staining, light microscopy enumeration); assay type: cell-based; details: human neutrophils
Method: Neutrophils were purified from fresh human blood obtained by venipuncture from healthy adult volunteers and collected into acidified citrate. After addition of 6% dextran 70 (McGaw, Irvine, Calif.), RBCs were allowed to sediment for 1 hour at room temperature. The leukocyte-rich supernatant was overlaid onto an equal volume of Ficoll-Paque gradient (Piscataway, N.J.), and centrifuged at 400×g for 20 min. […] Residual RBCs were lysed with hypotonic saline.
Human leukocytes (10^6 cells/mL) were incubated with varying concentrations of arachidonic acid (AA), oleic acid (OA) or vehicle at 37° C. in a 5% CO2 /95% O2 atmosphere, and after 1 hour leukocytes (10^5 cells per slide) were cytocentrifuged (550 rpm, 5 min) onto glass slides. During inhibitory studies, neutrophils were pretreated for 1 hour with varying concentrations of enzyme inhibitors, protein synthesis inhibitors, or vehicle as indicated. When PKC inhibitors were used, the pre-incubation time was reduced to 30 minutes to avoid toxic effects to the cells. […] Stock solutions for A23187, D609, U-73122, and indomethacin were prepared in DMSO and stored at -20° C. Aliquots were diluted in Ca^++ /Mg^++ fee HBSS to the indicated concentration immediately prior to use. […] The morphology of fixed cells was observed, and lipid bodies were enumerated with phase contrast microscopy and a 100× objective lens in 50 consecutively scanned leukocytes.
Results were expressed as mean±SEM and were analyzed statistically by means of the analysis of variance followed by the Newman-Keuls-Student test with the level of significance set at p<0.05. Correlation coefficients were determined by linear regression, and correlation analysis was performed by Fisher's r to z transformation with the level of significance set at p<0.05.
^1 Neutrophils (10^6 /ml) were pretreated with protein kinase C
(actinomycin D, cycloheximide) for 30 min or with phospholipase C
inhibitors (D609, U73122) for 1 h. The cells were then stimulated with
vehicle, arachidonic acid (15 μM), or oleic acid (10 μM), for 1 h.
Results are mean ± SEM from fifty consecutively counted neutrophils.
Statistically significant differences between the agonist alone and the
inhibitor are represented by an asterisk(*). Percent inhibition has been
calculated after subtracting out the basal number of lipid bodies/PMN
present prior to stimulation.
^1 Neutrophils (10^6 /ml) were pretreated with the NSAID or
vehicle for 1 h then stimulated with vehicle, arachidonic acid, or oleic
± SEM from fifty consecutively counted neutrophils. Statistically
significant differences between the agonist alone and the NSAID are
represented by an asterisk (*). Percent inhibition has been calculated
after subtracting out the basal number of lipid bodies/PMN present prior

[3] = system: wild-type mouse neutrophils; assay: lipid body formation in wild-type mouse neutrophils; assay type: cell-based; details: AA 3.7-15 μM or OA 2.5-10 μM
[4] = system: peritoneal macrophages from wild type mice; assay: lipid body formation in peritoneal macrophages from wild type mice; assay type: cell-based, mouse; details: for induction of lipid bodies in macrophages: wild-type mouse, AA 3.7-15 μM or OA 2.5-10 μM
Method: as §2, §1, §3, §4, §5, §6

[5] = system: human neutrophils (LTB4 production); assay: LTB4 production by human neutrophils (priming, A23187 stimulation, ELISA); assay type: cell-based
Method: (§7) FIG. 1A is a graph illustrating the effect of arachidonic acid (AA) and oleic acid (OA) on induction of lipid body formation (black) and priming effects (white) for enhanced leukotriene B4 (LTB4) by human neutrophils. Neutrophils (10^6 /mL) were stimulated for one hour with arachidonic acid (3.7, 7.5, 15 μM) or oleic acid (2.5, 5, 10 μM). Lipid bodies were enumerated using light microscopy following osmium staining. The concentration of LTB4 in the supernatant was measured by ELISA after incubation with A23187 (0.5 μM) for 15 minutes at 37° C. Data are expressed as mean from 2-3 independent assays performed in duplicate.
FIG. 5A is a graph showing that aspirin inhibits cis-unsaturated fatty acid-induced priming for enhanced leukotriene B4 (LTB4) production in human neutrophils. Striped and open columns represent vehicle treated cells and aspirin treated cells, respectively. Cells (10^6 /mL) were pretreated with aspirin (10 μg/mL) or vehicle for one hour and then stimulated with OA (10 μM) or vehicle for one hour. The concentration of LTB4 in the supernatant was measured by ELISA after incubation with A23187 (0.5 μM) for 15 minutes at 37° C. Data are expressed as mean from 2-4 independent assays performed in duplicate. The statistically significant difference between the vehicle alone and the agonist is represented by a cross. Statistically significant differences due to pretreatment with aspirin are indicated by an asterisk.
(§8) After the incubation time, a sample was taken for lipid body enumeration and the cells were washed in Ca^++ /Mg^++ free HBSS. Leukocytes were resuspended in 1 mL of HBSS containing Ca^++ /Mg^++ and then stimulated with A23187 (0.5 μM) for 15 min. The reaction was stopped on ice, and the samples were centrifuged at 1500 rpm for 10 min at 4° C. The concentrations of PGE2, LTB4, and LTC4 in the supernatants were assayed by ELISA according to the manufacturer's instructions (Cayman, Ann Arbor, Mich.).

[6] = system: human eosinophils (PGE2 production); assay: PGE2 production by human eosinophils (priming, A23187 stimulation, ELISA); assay type: cell-based; details: 10 μg/mL pretreatment
Method: as §7, with “2B” for “1A”, “prostaglandin E2 (PGE2)” for “leukotriene B4 (LTB4)”, “eosinophils. Eosinophils” for “neutrophils. Neutrophils”, “PGE2” for “LTB4”, “2” for “2-3”
as §8

[7] = Homo sapiens, Neutrophil, 1 h, read-out: fold increase in production of LTB4
[8] = staurosporine 0.1-1.0 μM, aspirin 10 μg/mL, others as in Tables 1 and 2

SMILES	induction of lipid body formation in macrophages [1]	induction of lipid body formation in macrophages [2]	increase in number of lipid bodies (human neutrophils)	induction of lipid bodies in neutrophils [3]	induction of lipid bodies in macrophages [4]	fold induction at 10 µM [5, 7]	increase in production of LTB4 ([5]; neutrophils)	correlation (r) between number of lipid bodies and priming for enhanced LTB4 release ([5]; oleic acid, leukocytes, p<0.05)	inhibition of PGE2 production [6]	inhibition of arachidonic acid-induced lipid body formation (human neutrophils; [8])	inhibition of oleic acid-induced lipid body formation (human neutrophils; [8])	inhibition of calcium ionophore-induced LTB4 production ([5]; cells not pre-stimulated with cis-unsaturated fatty acids)	inhibition of oleic acid-induced priming for enhanced LTB4 production ([5]; neutrophils, 10 μg/mL, OA 10 μM)	lipid bodies (mean ± SEM)/macrophage ([2]; COX 1 knockout, AA 15 μM alone, 1 h, no NSAID) [lipid bodies/macrophage]	lipid bodies (mean ± SEM)/macrophage ([4]; wild type, AA 15 μM alone, 1 h, no NSAID) [lipid bodies/macrophage]	fold induction at 15 µM [5, 7]
CCCCCCCC/C=C\CCCCCCCC(=O)O [oleic acid]	induced lipid body formation	induced lipid body formation	dose-dependent increase in the number of lipid bodies	can also be stimulated in vitro to produce lipid bodies	can also be stimulated in vitro to produce lipid bodies	2	dose-dependent increase in production	0.96								
CC(=O)Oc1ccccc1C(=O)O [aspirin]									inhibited PGE2 production	significantly inhibited	significantly inhibited	failed to inhibit	significantly inhibited			
CCCCC/C=C\C/C=C\C/C=C\C/C=C\CCCC(=O)O [arachidonic acid]	induced lipid body formation	induced lipid body formation	dose-dependent increase in the number of lipid bodies	can also be stimulated in vitro to produce lipid bodies	can also be stimulated in vitro to produce lipid bodies		dose-dependent increase in production							7.0 ± 0.5	6.8 ± 0.3	2.3
